Assay [1] has as its system endogenous insulin message. Kind of assay: Secondary confirmatory assay, endogenous insulin message in T6PNE cells. The assay is classed as cell-based, human.
Assay [2] concerns the target T1, human PPARγ (Homo sapiens, UniProt P37231).
T1 construct: expressed in transfected cells; host or cells: HeLa cells
T1 sequence (P37231 1-505): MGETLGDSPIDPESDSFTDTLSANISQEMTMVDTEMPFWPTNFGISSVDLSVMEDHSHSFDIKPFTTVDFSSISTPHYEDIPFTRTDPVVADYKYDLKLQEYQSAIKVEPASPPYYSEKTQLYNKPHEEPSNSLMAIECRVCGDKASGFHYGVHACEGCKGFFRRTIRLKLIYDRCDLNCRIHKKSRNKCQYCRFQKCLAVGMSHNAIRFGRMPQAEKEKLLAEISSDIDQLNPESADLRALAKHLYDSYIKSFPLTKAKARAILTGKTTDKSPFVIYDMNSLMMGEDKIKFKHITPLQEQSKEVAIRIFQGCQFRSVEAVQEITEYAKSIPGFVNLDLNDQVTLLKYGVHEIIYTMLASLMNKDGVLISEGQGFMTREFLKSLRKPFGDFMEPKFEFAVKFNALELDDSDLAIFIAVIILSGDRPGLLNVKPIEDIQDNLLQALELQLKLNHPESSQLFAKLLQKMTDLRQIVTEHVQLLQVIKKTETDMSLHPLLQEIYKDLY
The assay is described as follows: PPAR response element (PPRE)-luciferase reporter assay in HeLa cells. The assay is classed as cell-based. Conditions: PPRE reporter plasmid with or without human PPARγ expression vector. As for the experimental part: The core structure of BIM5078, benzimidazole, is related to known PPARγ compounds that functions as agonists or antagonists. BIM5078 was used in a PPAR response element (PPRE)-luciferase reporter assay. HeLa cells were co-transfected with a PPAR response element (PPRE) reporter plasmid and a human PPARγ expression vector. […] Known PPARγ agonists were used as positive controls. The same PPARγ agonist compounds were tested on T6PNE ins-eGFP for their ability to repress the insulin promoter. Known PPARγ agonists are unable to suppress insulin gene transcription. Similarly, other PPAR agonists of the alpha and delta class were also negative in the assay. However, because HNF4α also binds to PPREs, BIM5078's ability to bind HNF4α was further investigated.
(In general: In a reporter assay the amount or activity of a reporter protein is the signal.)

Assay [3] in a line: HBV surface antigen levels in Huh7 cells transfected with wild-type HBV construct (pWTD). The assay is classed as cell-based, Hepatitis B virus. An excerpt:
(§1) The HBsAg is seen as doublet bands with different glycosylation forms (GP33 and GP36).
(§2) BIM5078 is an HNF4α antagonist and can be useful in treatment of diseases involving HNF4α modulation. There are a number of HNF4α binding sites in the HBV genome, including the enhancer region, the core promoter and the polymerase. BIM5078 can downregulate the core and polymerase, and it has been discovered that it can effectively suppress or eliminate HBV proliferation. Also, the HNF4α binding sites are well-conserved and no mutations of these sites have yet been discovered in the various HBV strains. Thus, targeting HNF4α can circumvent the resistance seen with traditional therapies. […] The ability of the HNF4α antagonist BIM5078 to reduce viral production in Huh7 cells transfected with the wild-type HBV construct (pWTD) was tested. […] The large decrease in the two glycosylation forms of the surface antigen was visualized as doublet bands (FIG. 9).

Assay [4] concerns HBV. The description is as above. Conditions: GP33 and GP36 doublet bands. The assay is classed as cell-based, Hepatitis B virus.
Text: as §1, §2

The test system of assay [5] is HNF1α transcription. Kind of assay: HNF1α transcription. The assay is classed as cell-based. As for the experimental part:
HNF1α is a downstream target of HNF4α and has a known binding site on the human insulin gene promoter. […] It is unclear whether HNF4α is modulating the insulin promoter directly or indirectly through a downstream target. Overexpression of HNF1α or HNF4α would overcome the repressive effects of BIM5078. The repressive effect of BIM5078 was lost when it was added to T6PNE cells with high levels of induced E47 (FIG. 8). High E47 levels are thought to resemble the normal state of a β-cell while low levels of E47 to simulate the stress condition.

Assay [6] deals with T2, HNF4α (Homo sapiens, UniProt P41235).
T2 sequence (P41235 1-474): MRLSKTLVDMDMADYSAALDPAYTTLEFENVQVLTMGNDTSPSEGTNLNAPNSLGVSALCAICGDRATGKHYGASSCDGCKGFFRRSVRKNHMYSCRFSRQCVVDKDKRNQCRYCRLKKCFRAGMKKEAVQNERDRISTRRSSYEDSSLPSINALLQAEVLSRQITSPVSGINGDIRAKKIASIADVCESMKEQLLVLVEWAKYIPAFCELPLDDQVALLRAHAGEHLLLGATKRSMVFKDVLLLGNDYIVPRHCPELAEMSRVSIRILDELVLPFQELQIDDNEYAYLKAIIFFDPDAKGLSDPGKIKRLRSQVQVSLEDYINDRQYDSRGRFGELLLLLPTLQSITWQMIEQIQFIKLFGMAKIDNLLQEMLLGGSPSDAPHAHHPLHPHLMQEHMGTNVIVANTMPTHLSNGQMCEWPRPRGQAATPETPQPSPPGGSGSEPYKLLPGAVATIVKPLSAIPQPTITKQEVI
The assay is described as follows: HNF4α subcellular localization. The assay is classed as cell-based. An excerpt:
Many ligands for nuclear receptor subfamilies induce the translocation of their receptors between the cytoplasm and the nucleus.

The conditions of assay [7]: hoFH patients, ezetimibe 10 mg/day added to statin 80 mg/day; cited from earlier work.
Assay [8] concerns human insulin promoter. The assay is described as follows: High-throughput screen / confirmatory assay, insulin promoter-GFP (ins-GFP) transgene in T6PNE cells. The assay is classed as cell-based. Conditions: T6PNE ins-eGFP cells. The text has this: Primary β-cells are in short supply and have a strong tendency to undergo apoptosis when manipulated in culture. Therefore, a β-cell model was used for the studies regarding β-cell growth and differentiation. T6PNE cells were derived from human fetal islets and were engineered to express the transcription factors PDX-1, NeuroD1, and E47, which are all present in the human β-cell. It was observed that induction of E47 upregulates the expression of many genes associated with β-cell function, including insulin. Consistent with what occurs in primary β-cells, it also was observed that E47 induction caused growth arrest in the cell line. Therefore, E47 was […] in T6PNE cells. […] Therefore, expression in the transfunctioned cell can be used as a baseline so both up and down regulators of the insulin promoter can be monitored in the screening assays. […] Insulin expression was monitored and visualized by the ins-GFP transgene. Hits were determined and dependent on the ability to differentiate between a baseline condition and the corresponding positive or negative control. […]
The HTS was performed in a 384-well format where primed T6PNE cells express the ins-GFP transgene and the test compound was added 24 hours later. […] The Images were then analyzed using algorithms (Jeff Price at the Screening Center at the Burnham Institute). […]

Entries after “also recorded” stand apart in the source; their conditions may differ.

For 4-hydroxytamoxifen [reference compound], the “endogenous insulin message with E47 induction” value in assay [1] (T6PNE cells with inducible E47) is reported as “upregulated in a dose-dependent manner”.
On to `Cc1nc2ccccc2n1S(=O)(=O)c1cc([N+](=O)[O-])ccc1Cl` [BIM5078, 1-(2-Chloro-5-nitrophenylsulfonyl)-2-methyl-1H-benzo[d]imidazole], for which the “repressive effect on insulin expression at high E47” value in assay [1] (T6PNE cells with high levels of induced E47 (high 4-hydroxytamoxifen)) is listed as “lost”. For the same compound, the “activation of PPRE reporter” value in assay [2] was “activated the PPRE”. For the same compound, in assay [3], the actin levels entry was “no dependence”. Besides, the “HBV surface antigen (HBsAg) levels” value in assay [4] is reported as “decreased their levels of surface antigen; also recorded: decreased the HBsAg protein expression”. Further, in assay [5], the HNF1α transcription entry was “decrease the HNF1α transcription”. The “HNF4α localization upon addition of compound” value in assay [6] is “localized entirely in the nucleus”.
As to `O=C1[C@H](CC[C@H](O)c2ccc(F)cc2)[C@@H](c2ccc(O)cc2)N1c1ccc(F)cc1` [ezetimibe], the “total reduction of LDL-C levels” value in assay [7] is 27%.
On to `CCCCCCCCCCCCCCCC(=O)O` [palmitic acid], for which the “insulin promoter activity / insulin gene transcription, effect in words” value in assay [8] is reported as “suppresses the insulin promoter activity in a dose-dependent fashion”.

Source of the values: patent US20100286220A1, “HNF4alpha ANTAGONISTS AND METHODS OF USE” (Burnham Institute for Medical Research, priority 2009, published 2010).
